Assay results as given in patent US12077503B2, “Substituted cyclic amides and their use as herbicides” (FMC CORPORATION, priority 2015, dated 2024).

Tests used:
Assay type in all cases: in vivo
[1] = test system: Galium (catchweed bedstraw, Galium aparine); assay: Test A postemergence; conditions: Galium, post-emergence, 240 h; for pest or weed control at 125 g/ha: 125 g ai/ha, postemergence, visual injury rating after approximately 10 d, read-out: Galium plant response rating (0 to 100 scale, 0 no effect, 100 complete control); for pest or weed control at 31 g/ha: Postemergence, 31 g ai/ha, visual injury after approx. 10 d, 0 to 100 scale, 0 no effect, 100 complete control, read-out: Plant response rating, Galium
In short: (§1)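 Visual injury, scored on a 0–100 scale relative to untreated controls, was recorded about 10 d after application. Treatments were a preemergence soil spray over planted seeds or a postemergence spray on plants at the one- to two-leaf stage, 2 to 10 cm tall, all in loam soil–sand blend in the greenhouse.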

[2] = test system: giant foxtail (Setaria faberii); assay: Test A postemergence; conditions: Setaria faberi, post-emergence, 240 h; for pest or weed control at 125 g/ha: 125 g ai/ha, postemergence, visual injury rating after approximately 10 d, read-out: Foxtail, Giant plant response rating (0 to 100 scale, 0 no effect, 100 complete control); for pest or weed control at 31 g/ha: Postemergence, 31 g ai/ha, visual injury after approx. 10 d, 0 to 100 scale, 0 no effect, 100 complete control, read-out: Plant response rating, Foxtail, Giant
In short: as §1

[3] = test system: wheat (Triticum aestivum); assay: Test A postemergence; conditions: Triticum aestivum, post-emergence, 240 h; for plant injury at 125 g/ha: 125 g ai/ha, postemergence, visual injury rating after approximately 10 d, read-out: Wheat plant response rating (0 to 100 scale, 0 no effect, 100 complete control); for plant injury at 31 g/ha: Postemergence, 31 g ai/ha, visual injury after approx. 10 d, 0 to 100 scale, 0 no effect, 100 complete control, read-out: Plant response rating, Wheat
In short: as §1

[4] = test system: barnyardgrass (Echinochloa crus-galli); assay: Test A postemergence; conditions: Echinochloa crus-galli, post-emergence, 240 h; for pest or weed control at 125 g/ha: 125 g ai/ha, postemergence, visual injury rating after approximately 10 d, read-out: Barnyardgrass plant response rating (0 to 100 scale, 0 no effect, 100 complete control); for pest or weed control at 31 g/ha: Postemergence, 31 g ai/ha, visual injury after approx. 10 d, 0 to 100 scale, 0 no effect, 100 complete control, read-out: Plant response rating, Barnyardgrass
In short: as §1

rice (Oryra sativa) = assay: Test B flooded paddy test; conditions: Oryza sativa, Flood, 250 g ai/ha; scale of 0 to 100 where 0 is no effect and 100 is complete control; read-out: Rice plant response rating
In short: (§2)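 Visual ratings (0 none to 100 complete control) are relative to untreated plants, taken 13–15 d after treatment in a greenhouse. Test material went straight into floodwater standing 3 cm above the soil, kept constant, on plants at the 2-leaf stage.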

[5] = test system: barnyardgrass (Echinochloa crus-galli); assay: Test B flooded paddy test; conditions: Echinochloa crus-galli, Flood, 250 g ai/ha; scale of 0 to 100 where 0 is no effect and 100 is complete control; read-out: Barnyardgrass plant response rating
In short: as §2

[6] = test system: sedge, umbrella (small-flower umbrella sedge, Cyperus difformis); assay: Test B flooded paddy test; conditions: Cyperus difformis, Flood, 250 g ai/ha; scale of 0 to 100 where 0 is no effect and 100 is complete control; read-out: Sedge, Umbrella plant response rating
In short: as §2

[7] = test system: ducksalad (Heteranthera limosa); assay: Test B flooded paddy test; conditions: Heteranthera limosa, Flood, 250 g ai/ha; scale of 0 to 100 where 0 is no effect and 100 is complete control; read-out: Ducksalad plant response rating
In short: as §2

[8] = test system: pigweed (Amaranthus retroflexus); assay: Test A preemergence; conditions: Amaranthus retroflexus, pre-emergence, 240 h, read-out: Plant response rating, Pigweed; for pest or weed control at 125 g/ha: 125 g ai/ha, preemergence, visual rating after approx. 10 d, 0 to 100 scale where 0 is no effect and 100 is complete control; for pest or weed control at 31 g/ha: Preemergence, 31 g ai/ha, 0 to 100 scale (0 no effect, 100 complete control)
[9] = test system: ryegrass, Italian (Italian ryegrass, Lolium multiflorum); assay: Test A preemergence; conditions: Lolium multiflorum, pre-emergence, 240 h, read-out: Plant response rating, Ryegrass, Italian; for pest or weed control at 125 g/ha: 125 g ai/ha, preemergence, visual rating after approx. 10 d, 0 to 100 scale where 0 is no effect and 100 is complete control; for pest or weed control at 31 g/ha: Preemergence, 31 g ai/ha, 0 to 100 scale (0 no effect, 100 complete control)
In short: as §1

[10] = test system: giant foxtail (Setaria faberii); assay: Test A preemergence; conditions: Setaria faberi, pre-emergence, 240 h, read-out: Plant response rating, Foxtail, Giant; for pest or weed control at 125 g/ha: 125 g ai/ha, preemergence, visual rating after approx. 10 d, 0 to 100 scale where 0 is no effect and 100 is complete control; for pest or weed control at 31 g/ha: Preemergence, 31 g ai/ha, 0 to 100 scale (0 no effect, 100 complete control)
In short: as §1

[11] = test system: ragweed (common ragweed, Ambrosia elatior); assay: Test A preemergence; conditions: Ambrosia artemisiifolia, pre-emergence, 240 h, read-out: Plant response rating, Ragweed; for pest or weed control at 125 g/ha: 125 g ai/ha, preemergence, visual rating after approx. 10 d, 0 to 100 scale where 0 is no effect and 100 is complete control; for pest or weed control at 31 g/ha: Preemergence, 31 g ai/ha, 0 to 100 scale (0 no effect, 100 complete control)
In short: as §1

Kochia (Kochia scoparia) = assay: Test A preemergence; conditions: Bassia scoparia, pre-emergence, 240 h, read-out: Plant response rating, Kochia; for pest or weed control at 125 g/ha: 125 g ai/ha, preemergence, visual rating after approx. 10 d, 0 to 100 scale where 0 is no effect and 100 is complete control; for pest or weed control at 31 g/ha: Preemergence, 31 g ai/ha, 0 to 100 scale (0 no effect, 100 complete control)
In short: as §1

[12] = test system: barnyardgrass (Echinochloa crus-galli); assay: Test A preemergence; conditions: Echinochloa crus-galli, pre-emergence, 240 h, read-out: Plant response rating, Barnyardgrass; for pest or weed control at 125 g/ha: 125 g ai/ha, preemergence, visual rating after approx. 10 d, 0 to 100 scale where 0 is no effect and 100 is complete control; for pest or weed control at 31 g/ha: Preemergence, 31 g ai/ha, 0 to 100 scale (0 no effect, 100 complete control)
In short: as §1

Row | SMILES | pest or weed control at 125 g/ha [1] [%] | pest or weed control at 31 g/ha [1] [%] | pest or weed control at 125 g/ha [2] [%] | pest or weed control at 31 g/ha [2] [%] | plant injury at 125 g/ha [3] [%] | plant injury at 31 g/ha [3] [%] | pest or weed control at 125 g/ha [4] [%] | pest or weed control at 31 g/ha [4] [%] | pest or weed control at 250 g/ha (rice (Oryra sativa)) [%] | pest or weed control at 250 g/ha [5] [%] | pest or weed control at 250 g/ha [6] [%] | pest or weed control at 250 g/ha [7] [%] | pest or weed control at 125 g/ha [8] [%] | pest or weed control at 31 g/ha [8] [%] | pest or weed control at 125 g/ha [9] [%] | pest or weed control at 31 g/ha [9] [%] | pest or weed control at 125 g/ha [10] [%] | pest or weed control at 31 g/ha [10] [%] | pest or weed control at 125 g/ha [11] [%] | pest or weed control at 31 g/ha [11] [%] | also measured
1 | CN1C[C@H](c2ccc(C(F)F)cc2)[C@@H](C(=O)Nc2ccccc2F)C1=O [Compound 803] | 60 | 30 | 90 | 90 | 40 | 0 | 80 | 80 | 55 | 90 | 0 | 100 | 60 | 40 | 0 | 0 | 90 | 90 | 60 | 30 | pest or weed control at 125 g/ha (Kochia (Kochia scoparia)): 70%; pest or weed control at 31 g/ha (Kochia (Kochia scoparia)): 50%; pest or weed control at 125 g/ha [12]: 90%; pest or weed control at 31 g/ha [12]: 70%
2 | CN1CC[C@H](c2cccc(OC(F)(F)F)c2)[C@@H](C(=O)Nc2cccc(F)c2F)C1=O [Compound 807] | 0 | 0 | 80 | 70 | 30 | 0 | 80 | 70 | 0 | 95 | 0 | 100 | 40 | 0 | 70 | 20 | 100 | 100 | 0 | 0 | pest or weed control at 125 g/ha (Kochia (Kochia scoparia)): 50%; pest or weed control at 31 g/ha (Kochia (Kochia scoparia)): 0%; pest or weed control at 125 g/ha [12]: 100%; pest or weed control at 31 g/ha [12]: 100%
3 | CN1CC[C@H](c2cccc(OC(F)(F)F)c2)[C@@H](C(=O)Nc2cccc(Cl)c2F)C1=O [Compound 810] | 0 | 0 | 80 | 60 | 0 | 0 | 70 | 40 | 0 | 60 | 0 | 90 | 0 | 0 | 20 | 0 | 90 | 70 | 0 | 0 | pest or weed control at 125 g/ha (Kochia (Kochia scoparia)): 0%; pest or weed control at 31 g/ha (Kochia (Kochia scoparia)): 0%; pest or weed control at 125 g/ha [12]: 90%; pest or weed control at 31 g/ha [12]: 90%
